Measured values: the NIST ThermoML archive (doi:10.1016/j.jct.2010.08.019)
± gives the expanded uncertainty stated by the source.

Test: xn = mol fraction of the nth substance listed
Conditions: for surface tension liquid-gas: Wilhelmy-plate method; for viscosity / mass density: 101 kPa, Liquid; for viscosity: Falling or rolling sphere viscometry; for mass density: Vibrating tube method

CC(C)CC(C)(C)C [2,2,4-trimethylpentane] + CC(C)O
Conditions	mass density [kg/m3]	surface tension liquid-gas [mN/m]	viscosity [mPa·s]
293.15 K, x2 = 0	691.98 ± 0.18	18.8 ± 0.4	0.503 ± 0.009
293.15 K, x2 = 0.0501	693.38 ± 0.18	–	0.502 ± 0.009
293.15 K, x2 = 0.1006	695.3 ± 0.18	18.8 ± 0.4	0.509 ± 0.009
293.15 K, x2 = 0.1512	697.45 ± 0.18	–	0.517 ± 0.009
293.15 K, x2 = 0.2003	699.71 ± 0.18	18.9 ± 0.4	0.53 ± 0.009
293.15 K, x2 = 0.2501	702.18 ± 0.18	–	0.543 ± 0.009
293.15 K, x2 = 0.3003	704.91 ± 0.17	19 ± 0.4	0.563 ± 0.009
293.15 K, x2 = 0.3502	707.91 ± 0.17	–	0.593 ± 0.009
293.15 K, x2 = 0.4004	711.2 ± 0.17	19 ± 0.4	0.628 ± 0.009
293.15 K, x2 = 0.4502	714.74 ± 0.17	–	0.662 ± 0.01
293.15 K, x2 = 0.5001	718.61 ± 0.17	19.2 ± 0.4	0.699 ± 0.01
293.15 K, x2 = 0.55	722.8 ± 0.17	–	0.755 ± 0.01
293.15 K, x2 = 0.5998	727.34 ± 0.17	19.3 ± 0.4	0.82 ± 0.01
293.15 K, x2 = 0.6502	732.45 ± 0.17	–	0.906 ± 0.011
293.15 K, x2 = 0.7002	737.93 ± 0.17	19.6 ± 0.4	1.004 ± 0.011
293.15 K, x2 = 0.7499	743.9 ± 0.16	–	1.12 ± 0.012
293.15 K, x2 = 0.7999	750.57 ± 0.16	20 ± 0.4	1.264 ± 0.013
293.15 K, x2 = 0.85	757.91 ± 0.16	–	1.439 ± 0.014
293.15 K, x2 = 0.8999	766.04 ± 0.16	20.6 ± 0.4	1.666 ± 0.015
293.15 K, x2 = 0.95	775.2 ± 0.16	–	1.96 ± 0.018
303.15 K, x2 = 0	683.61 ± 0.18	17.9 ± 0.4	0.447 ± 0.009
303.15 K, x2 = 0.05	684.93 ± 0.18	–	0.444 ± 0.009
303.15 K, x2 = 0.1	686.65 ± 0.18	17.9 ± 0.4	0.45 ± 0.009
303.15 K, x2 = 0.1499	688.68 ± 0.18	–	0.457 ± 0.009
303.15 K, x2 = 0.2004	690.94 ± 0.18	17.9 ± 0.4	0.464 ± 0.009
303.15 K, x2 = 0.2497	693.36 ± 0.18	–	0.474 ± 0.009
303.15 K, x2 = 0.3	696.11 ± 0.18	18 ± 0.4	0.491 ± 0.009
303.15 K, x2 = 0.3499	699.03 ± 0.18	–	0.508 ± 0.009
303.15 K, x2 = 0.4008	702.3 ± 0.18	18 ± 0.4	0.532 ± 0.009
303.15 K, x2 = 0.4503	705.79 ± 0.17	–	0.558 ± 0.009
303.15 K, x2 = 0.5	709.61 ± 0.17	18.1 ± 0.4	0.589 ± 0.009
303.15 K, x2 = 0.5498	713.82 ± 0.17	–	0.633 ± 0.009
303.15 K, x2 = 0.6001	718.44 ± 0.17	18.3 ± 0.4	0.682 ± 0.01
303.15 K, x2 = 0.65	723.45 ± 0.17	–	0.745 ± 0.01
303.15 K, x2 = 0.7001	728.94 ± 0.17	18.6 ± 0.4	0.814 ± 0.01
303.15 K, x2 = 0.7495	734.92 ± 0.17	–	0.899 ± 0.011
303.15 K, x2 = 0.7989	741.51 ± 0.17	19 ± 0.4	0.995 ± 0.011
303.15 K, x2 = 0.8499	748.97 ± 0.16	–	1.158 ± 0.012
303.15 K, x2 = 0.8997	757.15 ± 0.16	19.6 ± 0.4	1.307 ± 0.013
303.15 K, x2 = 0.95	766.32 ± 0.16	–	1.485 ± 0.014
313.15 K, x2 = 0	675.23 ± 0.18	16.9 ± 0.4	0.404 ± 0.009
313.15 K, x2 = 0.0499	676.34 ± 0.18	–	0.398 ± 0.009
313.15 K, x2 = 0.1001	677.92 ± 0.18	16.9 ± 0.4	0.401 ± 0.009
313.15 K, x2 = 0.1503	679.86 ± 0.18	–	0.405 ± 0.009
313.15 K, x2 = 0.2001	682.09 ± 0.18	16.9 ± 0.4	0.412 ± 0.009
313.15 K, x2 = 0.2499	684.47 ± 0.18	–	0.42 ± 0.009
313.15 K, x2 = 0.3003	687.15 ± 0.18	17 ± 0.4	0.43 ± 0.009
313.15 K, x2 = 0.3497	689.97 ± 0.18	–	0.449 ± 0.009
313.15 K, x2 = 0.4	693.18 ± 0.18	17.1 ± 0.4	0.458 ± 0.009
313.15 K, x2 = 0.4502	696.67 ± 0.18	–	0.476 ± 0.009
313.15 K, x2 = 0.5005	700.49 ± 0.18	17.2 ± 0.4	0.5 ± 0.009
313.15 K, x2 = 0.5499	704.67 ± 0.18	–	0.529 ± 0.009
313.15 K, x2 = 0.6	709.23 ± 0.17	17.5 ± 0.4	0.569 ± 0.009
313.15 K, x2 = 0.6498	714.27 ± 0.17	–	0.61 ± 0.009
313.15 K, x2 = 0.6999	719.71 ± 0.17	17.8 ± 0.4	0.657 ± 0.01
313.15 K, x2 = 0.75	725.83 ± 0.17	–	0.719 ± 0.01
313.15 K, x2 = 0.7998	732.49 ± 0.17	18.2 ± 0.4	0.782 ± 0.01
313.15 K, x2 = 0.8498	739.89 ± 0.17	–	0.87 ± 0.011
313.15 K, x2 = 0.8999	748.21 ± 0.16	18.8 ± 0.4	0.987 ± 0.011
313.15 K, x2 = 0.9499	757.39 ± 0.16	–	1.129 ± 0.012
323.15 K, x2 = 0	666.8 ± 0.19	16.2 ± 0.4	0.365 ± 0.009
323.15 K, x2 = 0.0501	667.65 ± 0.19	–	0.359 ± 0.008
323.15 K, x2 = 0.1	669.08 ± 0.19	16.2 ± 0.4	0.36 ± 0.008
323.15 K, x2 = 0.15	670.98 ± 0.19	–	0.366 ± 0.009
323.15 K, x2 = 0.1998	673.08 ± 0.18	16.2 ± 0.4	0.37 ± 0.009
323.15 K, x2 = 0.25	675.42 ± 0.18	–	0.375 ± 0.009
323.15 K, x2 = 0.3	677.99 ± 0.18	16.2 ± 0.4	0.383 ± 0.009
323.15 K, x2 = 0.35	680.86 ± 0.18	–	0.392 ± 0.009
323.15 K, x2 = 0.4	683.93 ± 0.18	16.3 ± 0.4	0.403 ± 0.009
323.15 K, x2 = 0.4499	687.34 ± 0.18	–	0.417 ± 0.009
323.15 K, x2 = 0.5	691.07 ± 0.18	16.4 ± 0.4	0.433 ± 0.009
323.15 K, x2 = 0.5501	695.17 ± 0.18	–	0.456 ± 0.009
323.15 K, x2 = 0.6	699.74 ± 0.18	16.7 ± 0.4	0.479 ± 0.009
323.15 K, x2 = 0.65	704.78 ± 0.18	–	0.508 ± 0.009
323.15 K, x2 = 0.7	710.22 ± 0.17	17 ± 0.4	0.544 ± 0.009
323.15 K, x2 = 0.7499	716.22 ± 0.17	–	0.588 ± 0.009
323.15 K, x2 = 0.7999	722.88 ± 0.17	17.4 ± 0.4	0.632 ± 0.009
323.15 K, x2 = 0.85	730.48 ± 0.17	–	0.696 ± 0.01
323.15 K, x2 = 0.9	738.82 ± 0.17	18 ± 0.4	0.776 ± 0.01
323.15 K, x2 = 0.95	748.16 ± 0.17	–	0.875 ± 0.011
